Source: the supplement of paper PMC10307832

Key:
Experiment in all cases: relative viability (nuclei count vs DMSO), 5 days (fraction); higher = more cells survive
COR-L23 = system: COR-L23
Summary of the method: (§1)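 Dosing by pin tool came one day after lung cancer cell lines were seeded in 1536-well plates, using either one drug or a fixed anchor-drug dose plus five library-drug doses (not always all listed) in √10 steps. After 5 days, nuclei were counted on 4× images. Relative viability is treated-well nuclei count divided by vehicle-well nuclei count, and values are medians of duplicate plates.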

HOP-62 = system: HOP-62
Summary of the method: as §1

UMC-11 = system: UMC-11
Summary of the method: as §1

NCI-H1755 = system: NCI-H1755
Summary of the method: as §1

NCI-H358 = system: NCI-H358
Summary of the method: as §1

COR-L 105 = system: COR-L 105
Summary of the method: as §1

NCI-H647 = system: NCI-H647
Summary of the method: as §1

NCI-H1734 = system: NCI-H1734
Summary of the method: as §1

NCI-H1395 = system: NCI-H1395
Summary of the method: as §1

HARA = system: HARA
Summary of the method: as §1

NCI-H1792 = system: NCI-H1792
Summary of the method: as §1

NCI-H1793 = system: NCI-H1793
Summary of the method: as §1

NCI-H2347 = system: NCI-H2347
Summary of the method: as §1

NCI-H2009 = system: NCI-H2009
Summary of the method: as §1

NCI-H838 = system: NCI-H838
Summary of the method: as §1

NCI-H2170 = system: NCI-H2170
Summary of the method: as §1

SK-MES-1 = system: SK-MES-1
Summary of the method: as §1

NCI-H1355 = system: NCI-H1355
Summary of the method: as §1

NCI-H1993 = system: NCI-H1993
Summary of the method: as §1

HCC-15 = system: HCC-15
Summary of the method: as §1

NCI-H2228 = system: NCI-H2228
Summary of the method: as §1

NCI-H522 = system: NCI-H522
Summary of the method: as §1

`Cc1sc2c(c1C)C(c1ccc(Cl)cc1)=N[C@@H](CC(=O)OC(C)(C)C)c1nnc(C)n1-2` [JQ1] + N=C(N)NC(=N)NCCc1ccccc1 [Phenformin] (partner 250 µM) gave a relative viability (COR-L23; first compound 0.04 µM) of 0.385, a relative viability (COR-L23; first compound 0.1265 µM) of 0.351 and a relative viability (COR-L23; first compound 0.4 µM) of 0.428. The relative viability (COR-L23; first compound 1.265 µM) was 0.222, the relative viability (COR-L23; first compound 4 µM) was 0.227 and the relative viability (HOP-62; first compound 0.04 µM) was 0.633. The relative viability (HOP-62; first compound 0.1265 µM) was 0.547, the relative viability (HOP-62; first compound 0.4 µM) was 0.622 and the relative viability (HOP-62; first compound 1.265 µM) was 0.182. The relative viability (HOP-62; first compound 4 µM) was 0.102, the relative viability (UMC-11; first compound 0.04 µM) was 0.29 and the relative viability (UMC-11; first compound 0.1265 µM) was 0.211. It also gave a relative viability (UMC-11; first compound 0.4 µM) of 0.231, a relative viability (UMC-11; first compound 1.265 µM) of 0.224 and a relative viability (UMC-11; first compound 4 µM) of 0.195. The relative viability (NCI-H1755; first compound 0.04 µM) was 0.687, the relative viability (NCI-H1755; first compound 0.1265 µM) was 0.501 and the relative viability (NCI-H1755; first compound 0.4 µM) was 0.506. The relative viability (NCI-H1755; first compound 1.265 µM) was 0.462, the relative viability (NCI-H1755; first compound 4 µM) was 0.419 and the relative viability (NCI-H358; first compound 0.04 µM) was 0.355. The relative viability (NCI-H358; first compound 0.1265 µM) was 0.335, the relative viability (NCI-H358; first compound 0.4 µM) was 0.361 and the relative viability (NCI-H358; first compound 1.265 µM) was 0.198. For the same compound, the relative viability (NCI-H358; first compound 4 µM) was 0.161, the relative viability (COR-L 105; first compound 0.04 µM) was 0.432 and the relative viability (COR-L 105; first compound 0.1265 µM) was 0.239. For the same compound, the relative viability (COR-L 105; first compound 0.4 µM) was 0.217, the relative viability (COR-L 105; first compound 1.265 µM) was 0.22 and the relative viability (COR-L 105; first compound 4 µM) was 0.289. For the same compound, the relative viability (NCI-H647; first compound 0.04 µM) was 0.433, the relative viability (NCI-H647; first compound 0.1265 µM) was 0.306 and the relative viability (NCI-H647; first compound 0.4 µM) was 0.229. It also gave a relative viability (NCI-H647; first compound 1.265 µM) of 0.0637, a relative viability (NCI-H647; first compound 4 µM) of 0.0562 and a relative viability (NCI-H1734; first compound 0.04 µM) of 0.326. For the same compound, the relative viability (NCI-H1734; first compound 0.1265 µM) was 0.312, the relative viability (NCI-H1734; first compound 0.4 µM) was 0.336 and the relative viability (NCI-H1734; first compound 1.265 µM) was 0.251. For the same compound, the relative viability (NCI-H1734; first compound 4 µM) was 0.23, the relative viability (NCI-H1395; first compound 0.04 µM) was 0.439 and the relative viability (NCI-H1395; first compound 0.1265 µM) was 0.417. It also gave a relative viability (NCI-H1395; first compound 0.4 µM) of 0.478, a relative viability (NCI-H1395; first compound 1.265 µM) of 0.455 and a relative viability (NCI-H1395; first compound 4 µM) of 0.396. The relative viability (HARA; first compound 0.04 µM) was 0.465, the relative viability (HARA; first compound 0.1265 µM) was 0.236 and the relative viability (HARA; first compound 0.4 µM) was 0.484. For the same compound, the relative viability (HARA; first compound 1.265 µM) was 0.173, the relative viability (HARA; first compound 4 µM) was 0.186 and the relative viability (NCI-H1792; first compound 0.04 µM) was 0.323. It also gave a relative viability (NCI-H1792; first compound 0.1265 µM) of 0.19, a relative viability (NCI-H1792; first compound 0.4 µM) of 0.232 and a relative viability (NCI-H1792; first compound 1.265 µM) of 0.106. For the same compound, the relative viability (NCI-H1792; first compound 4 µM) was 0.0948, the relative viability (NCI-H1793; first compound 0.04 µM) was 0.315 and the relative viability (NCI-H1793; first compound 0.1265 µM) was 0.382. It also gave a relative viability (NCI-H1793; first compound 0.4 µM) of 0.35, a relative viability (NCI-H1793; first compound 1.265 µM) of 0.274 and a relative viability (NCI-H1793; first compound 4 µM) of 0.378. The relative viability (NCI-H2347; first compound 0.04 µM) was 0.332, the relative viability (NCI-H2347; first compound 0.1265 µM) was 0.504 and the relative viability (NCI-H2347; first compound 0.4 µM) was 0.323. The relative viability (NCI-H2347; first compound 1.265 µM) was 0.358, the relative viability (NCI-H2347; first compound 4 µM) was 0.233 and the relative viability (NCI-H2009; first compound 0.04 µM) was 0.477. For the same compound, the relative viability (NCI-H2009; first compound 0.1265 µM) was 0.339, the relative viability (NCI-H2009; first compound 0.4 µM) was 0.291 and the relative viability (NCI-H2009; first compound 1.265 µM) was 0.205. It also gave a relative viability (NCI-H2009; first compound 4 µM) of 0.223, a relative viability (NCI-H838; first compound 0.04 µM) of 0.554 and a relative viability (NCI-H838; first compound 0.1265 µM) of 0.285. It also gave a relative viability (NCI-H838; first compound 0.4 µM) of 0.372, a relative viability (NCI-H838; first compound 1.265 µM) of 0.253 and a relative viability (NCI-H838; first compound 4 µM) of 0.17. The relative viability (NCI-H2170; first compound 0.04 µM) was 0.408, the relative viability (NCI-H2170; first compound 0.1265 µM) was 0.394 and the relative viability (NCI-H2170; first compound 0.4 µM) was 0.402. The relative viability (NCI-H2170; first compound 1.265 µM) was 0.354, the relative viability (NCI-H2170; first compound 4 µM) was 0.315 and the relative viability (SK-MES-1; first compound 0.04 µM) was 0.672. It also gave a relative viability (SK-MES-1; first compound 0.1265 µM) of 0.496, a relative viability (SK-MES-1; first compound 0.4 µM) of 0.428 and a relative viability (SK-MES-1; first compound 1.265 µM) of 0.307. It also gave a relative viability (SK-MES-1; first compound 4 µM) of 0.199, a relative viability (NCI-H1355; first compound 0.04 µM) of 0.45 and a relative viability (NCI-H1355; first compound 0.1265 µM) of 0.473. For the same compound, the relative viability (NCI-H1355; first compound 0.4 µM) was 0.433, the relative viability (NCI-H1355; first compound 1.265 µM) was 0.388 and the relative viability (NCI-H1355; first compound 4 µM) was 0.326. For the same compound, the relative viability (NCI-H1993; first compound 0.04 µM) was 0.49, the relative viability (NCI-H1993; first compound 0.1265 µM) was 0.55 and the relative viability (NCI-H1993; first compound 0.4 µM) was 0.561. The relative viability (NCI-H1993; first compound 1.265 µM) was 0.557, the relative viability (NCI-H1993; first compound 4 µM) was 0.572 and the relative viability (HCC-15; first compound 0.04 µM) was 0.458. The relative viability (HCC-15; first compound 0.4 µM) was 0.318, the relative viability (HCC-15; first compound 1.265 µM) was 0.189 and the relative viability (HCC-15; first compound 4 µM) was 0.19. For the same compound, the relative viability (NCI-H2228; first compound 0.04 µM) was 0.305, the relative viability (NCI-H2228; first compound 0.1265 µM) was 0.275 and the relative viability (NCI-H2228; first compound 0.4 µM) was 0.297. For the same compound, the relative viability (NCI-H2228; first compound 1.265 µM) was 0.181, the relative viability (NCI-H2228; first compound 4 µM) was 0.207 and the relative viability (NCI-H522; first compound 0.04 µM) was 0.656. It also gave a relative viability (NCI-H522; first compound 0.1265 µM) of 0.615, a relative viability (NCI-H522; first compound 0.4 µM) of 0.55 and a relative viability (NCI-H522; first compound 1.265 µM) of 0.519. The relative viability (NCI-H522; first compound 4 µM) was 0.323.
